Counter-ions that a name gives are not always drawn.
System: RPA194
Assay: RPA194 destruction / Pol I inhibition, high-content imaging in A375 cells
Type: cell-based
Conditions: A375 cells treated for 4 hours, anti-RPA194 immunofluorescence; pIC50 >= 5.02 deemed a Pol I inhibitor
Description: Cell culture: A375 cells (CRL-1619, ATCC) were grown in DMEM (GJBCO) supplemented with […] (GTBCO) in 5% CO2 at 37° C.
Cell treatment and Imaging: 18 hours post-seeding in cell carrier black 384-well plates (PerkinElmer) at 15 000 cells/well, A375 cells were treated for 4 hours with a positive control or test compounds (9 serial semi-log dilutions, top concentration 10 μM). Upon treatment A375 cells were (i) fixed for 15 min at RT with 4% of paraformaldehyde, (ii) permeabilized for 20 min at RT with 0.1-0.5% of NP-40, (iii) incubated with primary antibodies at 4° C.: anti-RPA194 (1:1000-1:1250 dilution, sc-48385, Santa Cruz Biotechnology) and anti-gH2Ax (1:5000 dilution, 81299, Abcam or 1:4000, JBW302, Millipore) (iv) incubated for 1 h at RT with Hoechst (1:5000 dilution, H3570, ThermoFisher) and secondary antibodies: anti-mouse-AlexaFluor488 (1:2000 dilution, A11001, ThermoFisher) and anti-rabbit-AlexaFluor647 (1:2000 dilution, A21443, ThermoFisher) or goat anti-mouse AlexaFluor-594 (1:1000 dilution). Images were acquired on an Operetta CLS High-Content Analysis System (PerkinElmer) (40× objective; 9 fields/well) and processed using the Columbus Image Analysis System (PerkinElmer) or by using Molecular Devices ImageXpress Micro XLS High Content Imager and MetaXpress high-content acquisition and analysis software.
In the table below, (+) is associated with a pIC50 5.02 to 5.8; (++) with pIC50 5.8 to 6.3; and (+++) with a pIC50 above 6.3.

| SMILES | Activity Range (pIC50) |
| --- | --- |
| C[C@H](CNC(=O)c1cccn2c(=O)c3ccc4ccccc4c3nc12)N(C)C [Example 11, (R)-N-(2-(dimethylamino)propyl)-7-oxo-7H-benzo[h]pyrido[2,1-b]quinazoline-12-carboxamide; hydrochloride] | +++ ((+++) with a pIC50 above 6.3) |
| CCN(CC)CCNC(=O)c1cccn2c(=O)c3ccc4ccccc4c3nc12 [Example 12, N-(2-(diethylamino)ethyl)-7-oxo-7H-benzo[h]pyrido[2,1-b]quinazoline-12-carboxamide; hydrochloride] | ++ ((++) with pIC50 5.8 to 6.3) |
| C[C@@H](CN(C)C)NC(=O)c1cccn2c(=O)c3ccc4ccccc4c3nc12 [Example 13, (S)-N-(1-(dimethylamino)propan-2-yl)-7-oxo-7H-benzo[h]pyrido[2,1-b]quinazoline-12-carboxamide; hydrochloride] | ++ ((++) with pIC50 5.8 to 6.3) |
| C[C@H](CN(C)C)NC(=O)c1cccn2c(=O)c3ccc4ccccc4c3nc12 [Example 14, (R)-N-(1-(dimethylamino)propan-2-yl)-7-oxo-7H-benzo[h]pyrido[2,1-b]quinazoline-12-carboxamide; hydrochloride] | +++ ((+++) with a pIC50 above 6.3) |
| O=C(NCCN1CCCCC1)c1cccn2c(=O)c3ccc4ccccc4c3nc12 [Example 15, 7-oxo-N-(2-(piperidin-1-yl)ethyl)-7H-benzo[h]pyrido[2,1-b]quinazoline-12-carboxamide; hydrochloride] | ++ ((++) with pIC50 5.8 to 6.3) |
| CNCCNC(=O)c1cccn2c(=O)c3ccc4ccccc4c3nc12 [Example 16, N-(2-(methylamino)ethyl)-7-oxo-7H-benzo[h]pyrido[2,1-b]quinazoline-12-carboxamide hydrochloride] | +++ ((+++) with a pIC50 above 6.3) |
| NCCNC(=O)c1cccn2c(=O)c3ccc4ccccc4c3nc12 [Example 17, N-(2-aminoethyl)-7-oxo-7H-benzo[h]pyrido[2,1-b]quinazoline-12-carboxamide hydrochloride] | + ((+) is associated with a pIC50 5.02 to 5.8) |
| CCN(C)CCNC(=O)c1cccn2c(=O)c3ccc4ccccc4c3nc12 [Example 18, N-(2-(ethyl(methyl)amino)ethyl)-7-oxo-7H-benzo[h]pyrido[2,1-blquinazoline-12-carboxamide hydrochloride] | +++ ((+++) with a pIC50 above 6.3) |
| CC1(C)CCN(CCNC(=O)c2cccn3c(=O)c4ccc5ccccc5c4nc23)C1 [Example 21, N-(2-(3,3-dimethylpyrrolidin-1-yl)ethyl)-7-oxo-7H-benzo[h]pyrido[2,1-b]quinazoline-12-carboxamide hydrochloride] | ++ ((++) with pIC50 5.8 to 6.3) |
| O=C1CCN(CCNC(=O)c2cccn3c(=O)c4ccc5ccccc5c4nc23)CC1 [Example 22, 7-oxo-N-(2-(4-oxopiperidin-1-yl)ethyl)-7H-benzo[h]pyrido[2,1-b]quinazoline-12-carboxamide hydrochloride] | ++ ((++) with pIC50 5.8 to 6.3) |
| CO[C@H]1CCN(CCNC(=O)c2cccn3c(=O)c4ccc5ccccc5c4nc23)C1 [Example 23, (S)-N-(2-(3-methoxypyrrolidin-1-yl)ethyl)-7-oxo-7H-benzo[h]pyrido[2,1-b]quinazoline-12-carboxamide hydrochloride] | +++ ((+++) with a pIC50 above 6.3) |
| CO[C@@H]1CCN(CCNC(=O)c2cccn3c(=O)c4ccc5ccccc5c4nc23)C1 [Example 24, (R)-N-(2-(3-methoxypyrrolidin-1-yl)ethyl)-7-oxo-7H-benzo[h]pyrido[2,1-b]quinazoline-12-carboxamide hydrochloride] | ++ ((++) with pIC50 5.8 to 6.3) |
| O=C(NCCN1CC[C@@H](F)C1)c1cccn2c(=O)c3ccc4ccccc4c3nc12 [Example 25, (R)-N-(2-(3-fluoropyrrolidin-1-yl)ethyl)-7-oxo-7H-benzo[h]pyrido[2,1-b]quinazoline-12-carboxamide hydrochloride] | + ((+) is associated with a pIC50 5.02 to 5.8) |
| C[C@@H](CN1C[C@H](O)[C@@H](O)C1)NC(=O)c1cccn2c(=O)c3ccc4ccccc4c3nc12 [Example 26, N-((S)-1-((3S,4S)-3,4-dihydroxy-pyrrolidin-1-yl)propan-2-yl)-7-oxo-7H-benzo[h]pyrido[2,1-b]quinazoline-12-carboxamide hydrochloride] | ++ ((++) with pIC50 5.8 to 6.3) |
| C[C@H](CN1C[C@H](O)[C@@H](O)C1)NC(=O)c1cccn2c(=O)c3ccc4ccccc4c3nc12 [Example 27, N-((R)-1-((3S,4S)-3,4-dihydroxy-pyrrolidin-1-yl)propan-2-yl)-7-oxo-7H-benzo[h]pyrido[2,1-b]quinazoline-12-carboxamide hydrochloride] | ++ ((++) with pIC50 5.8 to 6.3) |
| C[C@@H](CN1CC[C@H](O)C1)NC(=O)c1cccn2c(=O)c3ccc4ccccc4c3nc12 [Example 28, N-((S)-1-((S)-3-hydroxypyrrolidin-1-yl)propan-2-yl)-7-oxo-7H-benzo[h]pyrido[2,1-b]quinazoline-12-[(2S)-2-aminopropyl] pyrrolidin-3-ol; hydrochloride (165 mg, carboxamide hydrochloride] | ++ ((++) with pIC50 5.8 to 6.3) |
| C[C@@H](CN1CC[C@@H](O)C1)NC(=O)c1cccn2c(=O)c3ccc4ccccc4c3nc12 [Example 29, N-((S)-1-((R)-3-hydroxypyrrolidin-1-yl)propan-2-yl)-7-oxo-7H-benzo[h]pyrido[2,1-b]quinazoline-12-carboxamide hydrochloride] | ++ ((++) with pIC50 5.8 to 6.3) |
| C[C@H](CN1CC[C@H](O)C1)NC(=O)c1cccn2c(=O)c3ccc4ccccc4c3nc12 [Example 30, N-((R)-1-((S)-3-hydroxypyrrolidin-1-yl)propan-2-yl)-7-oxo-7H-benzo[h]pyrido[2,1-b]quinazoline-12-carboxamide hydrochloride] | +++ ((+++) with a pIC50 above 6.3) |
| C[C@H](CN1CC[C@@H](O)C1)NC(=O)c1cccn2c(=O)c3ccc4ccccc4c3nc12 [Example 31, N-((R)-1-((R)-3-hydroxypyrrolidin-1-yl)propan-2-yl)-7-oxo-7H-benzo[h]pyrido[2,1-b]quinazoline-12-carboxamide hydrochloride] | +++ ((+++) with a pIC50 above 6.3) |
| O=C(NCCO)c1cccn2c(=O)c3ccc4ccccc4c3nc12 [Example 32, N-(2-hydroxyethyl)-7-oxo-7H-benzo[h]pyrido[2,1-b]quinazoline-12-carboxamide; hydrochloride] | + ((+) is associated with a pIC50 5.02 to 5.8) |
| O=C(NCCN1CC[C@H](F)C1)c1cccn2c(=O)c3ccc4ccccc4c3nc12 [Example 33, (S)-N-(2-(3-fluoropyrrolidin-1-yl)ethyl)-7-oxo-7H-benzo[h]pyrido[2,1-b]quinazoline-12-carboxamide; hydrochloride] | + ((+) is associated with a pIC50 5.02 to 5.8) |
| O=C(NCCCN1CC2CCC(C1)O2)c1cccn2c(=O)c3ccc4ccccc4c3nc12 [Example 34, N-(3-(8-oxa-3-azabicyclo[3.2.1]octan-3-yl)propyl)-7-oxo-7H-benzo[h]pyrido[2,1-b]quinazoline-12-carboxamide; hydrochloride] | + ((+) is associated with a pIC50 5.02 to 5.8) |
| C[C@@H]1CCCN1CCNC(=O)c1cccn2c(=O)c3ccc4ccccc4c3nc12 [Example 35, (R)-N-(2-(2-methylpyrrolidin-1-yl)ethyl)-7-oxo-7H-benzo[h]pyrido[2,1-b]quinazoline-12-carboxamide; hydrochloride 1] | + ((+) is associated with a pIC50 5.02 to 5.8) |
| C[C@H]1CCCN1CCNC(=O)c1cccn2c(=O)c3ccc4ccccc4c3nc12 [Example 36, (S)-N-(2-(2-methylpyrrolidin-1-yl)ethyl)-7-oxo-7H-benzo[h]pyrido[2,1-b]quinazoline-12-yl)ethan-1-carboxamide; hydrochloride] | + ((+) is associated with a pIC50 5.02 to 5.8) |
| CN1CC(CNC(=O)c2cccn3c(=O)c4ccc5ccccc5c4nc23)C1 [Example 37, N-((1-methylazetidin-3-yl)methyl)-7-oxo-7H-benzo[h]pyrido[2,1-b]quinazoline-12-carboxamide; hydrochloride] | + ((+) is associated with a pIC50 5.02 to 5.8) |
| CN(C)CCCNC(=O)c1cccn2c(=O)c3ccc4ccccc4c3nc12 [Example 38, N-(3-(dimethylamino)propyl)-7-oxo-7H-benzo[h]pyrido[2,1-b]quinazoline-12-carboxamide; hydrochloride] | + ((+) is associated with a pIC50 5.02 to 5.8) |
